# In patent publication US7390641B2, “Production of peroxidase from plant cell and callus cultures” (Council of Scientific and Industrial Research, priority 2004, dated 2008):
# Where two headings read alike, the source gives them in different places.
# Legend:
# [1] = tested on: callus cultures of Nirgundi (Vitex negundo); experiment: Effect of growth regulators on callus growth and enzyme activity of callus cultures; assay type: cell-based; conditions: MS medium, Vitex negundo leaf callus; result in words
# Source text: Leaf tissues were taken as explants for callus initiation after being properly washed in 10% Labolene followed by surface sterilization in 0.1% Mercuric chloride under aseptic conditions and inoculated in Murashige and Skoog (MS) medium containing 3% sucrose, 0.8% agar in addition to plant growth regulators like kinetin (6-furfuryl amino purine), BAP (benzyl amino purine), 2,4-D (2,4-dichlorophenoxyacetic acid), NAA (naphthalene acetic acid), IBA (indole-3-butyric acid) alone and in different combinations and sub culturing was also done in similar hormone combinations for proliferation. When no hormone was supplied in the medium, callus growth was very slow albeit showing good peroxidase activity. […] The pH was kept at 5.8 in all the experiments. Once established, the liquid suspension was maintained by the sub-culturing of 10 ml each of 7 day culture into 100 ml of fresh media in 250 ml Erlenmeyer flasks and the CCAs were also maintained by the subsequent sub-culturing of 5 g each of the sample into fresh liquid media and the flasks were placed on a gyratory shaker at 120 rpm in the light at 25° C. Viability as well as activity was maintained even after a period of 6 months.
# [2] = tested on: Vitex extra cellular peroxidase; assay type: biochemical, Vitex negundo
Structure (SMILES),"Relative activity(%) ([2]; Reagent 1 Mm, None = 100)",Effect on Vitex peroxidase activity (inhibitor / enhancer / no change) ([2]; result in words),further results
O=C(O)Cc1c[nH]c2ccccc12 [IAA],–,–,Effect on callus growth and enzyme activity [1]: reduce both the callus growth as well as enzyme activity
O=S(=O)([O-])[O-].[Mg+2] [MgSO4],97%,no change in activity,–
"O=C(O)COc1ccc(Cl)cc1Cl [2,4-D, 2,4-dichlorophenoxyacetic acid]",–,–,Effect on callus growth and enzyme activity [1]: reduce both the callus growth as well as enzyme activity
"c1ccc(CNc2ncnc3[nH]cnc23)cc1 [BA, benzyl amino purine]",–,–,Effect on callus growth and enzyme activity [1]: better callus growth as well as enzyme activity
[Ca+2].[Cl-].[Cl-] [CaCl2],103%,no change in activity,–
O=C(O)CN(CCN(CC(=O)O)CC(=O)O)CC(=O)O [EDTA],–,–,Effect on Vitex peroxidase activity (inhibitor / enhancer / no change) [2]: enhancers; Relative activity(%) [2]: 113%
[I-].[K+] [KI],116%,–,–
[Cl-].[Na+] [NaCl],–,–,Effect on Vitex peroxidase activity (inhibitor / enhancer / no change) [2]: enhancers; Relative activity(%) [2]: 110%
"[N-]=[N+]=[N-].[Na+] [NaN3, sodium azide]",73%,enhancers,inhibition (reduction in activity) ([2]; 0.1 ml of 1 mM sodium azide in 2.4 ml of total assay volume): 30%
[Cl][Hg][Cl] [HgCl2],62%,Inhibitors,"inhibition ([2]; HgCl2, text b118): 60%"
O=S(=O)([O-])[O-].[Mn+2] [MnSO4],131%,enhancers,–
O=S(=O)([O-])[O-].[Zn+2] [ZnSO4],138%,enhancers,–
